From the NIST ThermoML archive (doi:10.1021/je8001255)
Numbers after ± are expanded uncertainties.

Assay: an = ratio of the nth substance listed, in mol/kg
Conditions: 100 kPa, Liquid; for electrical conductivity: Alternating current cell with electrodes

O=S(=O)([O-])[O-].[Cd+2] [cadmium sulfate] + O
Conditions	electrical conductivity, 278.15 K [S/m]	electrical conductivity, 283.15 K [S/m]	electrical conductivity, 288.15 K [S/m]	electrical conductivity, 293.15 K [S/m]	electrical conductivity, 298.15 K [S/m]	electrical conductivity, 303.15 K [S/m]	electrical conductivity, 308.15 K [S/m]	mass density, 298.15 K [kg/m3]
a1 = 0.00493	0.0507 ± 0.0051	0.0583 ± 0.0058	0.0658 ± 0.0066	0.0734 ± 0.0073	0.0813 ± 0.0081	0.0892 ± 0.0089	0.0972 ± 0.0097	998.06 ± 2.2
a1 = 0.01043	0.092 ± 0.0092	0.105 ± 0.011	0.119 ± 0.012	0.132 ± 0.013	0.146 ± 0.015	0.16 ± 0.016	0.174 ± 0.017	999.18 ± 2.2
a1 = 0.0299	0.209 ± 0.021	0.239 ± 0.024	0.269 ± 0.027	0.298 ± 0.03	0.328 ± 0.033	0.358 ± 0.036	0.387 ± 0.039	1003.14 ± 2.2
a1 = 0.0514	0.319 ± 0.032	0.364 ± 0.036	0.409 ± 0.041	0.454 ± 0.045	0.499 ± 0.05	0.544 ± 0.054	0.587 ± 0.059	1007.53 ± 2.2
a1 = 0.1001	0.537 ± 0.054	0.612 ± 0.061	0.687 ± 0.069	0.761 ± 0.076	0.836 ± 0.084	0.91 ± 0.091	0.981 ± 0.098	1017.5 ± 2.3
a1 = 0.2017	0.93 ± 0.093	1.06 ± 0.11	1.19 ± 0.12	1.32 ± 0.13	1.44 ± 0.14	1.57 ± 0.16	1.69 ± 0.17	1038.74 ± 2.4
a1 = 0.4092	1.61 ± 0.16	1.83 ± 0.18	2.05 ± 0.2	2.27 ± 0.23	2.49 ± 0.25	2.71 ± 0.27	2.92 ± 0.29	1084.21 ± 2.7
a1 = 0.6014	2.13 ± 0.21	2.42 ± 0.24	2.72 ± 0.27	3.01 ± 0.3	3.31 ± 0.33	3.6 ± 0.36	3.89 ± 0.39	1129.51 ± 3
a1 = 0.8202	2.6 ± 0.26	2.97 ± 0.3	3.33 ± 0.33	3.7 ± 0.37	4.07 ± 0.41	4.43 ± 0.44	4.8 ± 0.48	1185.1 ± 3.3
a1 = 1.001	2.96 ± 0.3	3.38 ± 0.34	3.79 ± 0.38	4.21 ± 0.42	4.63 ± 0.46	5.05 ± 0.51	5.47 ± 0.55	1234.43 ± 3.7
a1 = 1.209	3.1 ± 0.31	3.56 ± 0.36	4.01 ± 0.4	4.47 ± 0.45	4.95 ± 0.49	5.42 ± 0.54	5.9 ± 0.59	1295.86 ± 4.1
a1 = 1.378	3.16 ± 0.32	3.63 ± 0.36	4.11 ± 0.41	4.6 ± 0.46	5.1 ± 0.51	5.61 ± 0.56	6.12 ± 0.61	1349.9 ± 4.5
a1 = 1.486	3.13 ± 0.31	3.62 ± 0.36	4.11 ± 0.41	4.61 ± 0.46	5.12 ± 0.51	5.65 ± 0.57	6.18 ± 0.62	1385.75 ± 4.8
a1 = 1.609	3.04 ± 0.3	3.53 ± 0.35	4.02 ± 0.4	4.53 ± 0.45	5.06 ± 0.51	5.6 ± 0.56	6.14 ± 0.61	1429.78 ± 5.1
a1 = 1.798	2.8 ± 0.28	3.28 ± 0.33	3.77 ± 0.38	4.28 ± 0.43	4.81 ± 0.48	5.36 ± 0.54	5.91 ± 0.59	1500.75 ± 5.7
a1 = 1.939	2.53 ± 0.25	2.99 ± 0.3	3.46 ± 0.35	3.95 ± 0.39	4.47 ± 0.45	5 ± 0.5	5.55 ± 0.56	1556.84 ± 6.1
